Reference: patent US20070060636A1, “High enantiomeric purity dexanabinol for pharmaceutical compositions” (priority 2002, published 2007)

Tests used:
[1] = single dose toxicity and pharmacokinetics, rabbit; assay type: in vivo, New Zealand White rabbits; settings: for AUC(0-inf) / Cmax: plasma, single i.v. 25 mg/kg (NOAEL); for AUC∞ Ratio to Phase I / Cmax Ratio to Phase I / Cmax Ratio to Phase II: single i.v. 25 mg/kg; for AUC∞ Ratio to Phase I / Cmax Ratio to Phase I: vs human 150 mg Phase I; for Cmax Ratio to Phase II: vs human 150 mg Phase II
Procedure: (§1) The pharmacokinetics of dexanabinol of high enantiomeric purity formulated in CREMOPHOR EL®:ethanol as described in Example 4 were investigated in rats, rabbits, and monkeys following intravenous administration of single doses, and 14 and 28 days of repeated dosing. Human pharmacokinetics was studied during Phase I and Phase II clinical studies. Dexanabinol used in the pharmacokinetic studies was formulated as drug concentrates of 50 and 100 mg/ml and diluted with sterile 0.9% NaCl solution prior to intravenous (i.v.) administration to the desired final doses. Determination of dexanabinol concentrations in plasma and brain extracts was carried out using a validated Gas Chromatography-Mass Spectra (GC-MS) assay following solid phase extraction of the drug and derivatization. The limit of quantitation of the assay is 0.1 ng/ml.
(§2) Pharmacokinetic parameters were estimated by a non-compartmental method using WinNonlin Professional version 3.2 (Pharsight Corp., Mountain View, Calif.). The maximum plasma concentration (Cmax), when the drug is administered by infusion, is the concentration at the end of infusion. The Cmax following intravenous bolus administration is the value estimated by the software to be the concentration at t=0. The terminal slope (X) was estimated by linear regression through the last time points and used to calculate the terminal half-life (t1/2) from the following equation: t1/2=0.693/λ The area under the curve from time of dosing through the last time point (AUCz) was calculated by the linear trapezoid method. The AUC extrapolated to infinity (AUC∞) was calculated from the following equation: AUC∞=AUCz+Cz/λ where Cz is the concentration at the last time point predicted by the linear regression. AUC∞ was normalized for dose (mg/kg) and presented as AUC∞/Dose. Mean residence time (MRT), when the drug is administered by infusion is described by the following equation: MRT=(AUMC/AUC)−(TI)/2 Mean residence time after i.v. bolus administration is described by the following equation: MRT=(AUMC/AUC) where AUMC is the area under the first moment curve and TI is the length of infusion. Plasma clearance (CL), and the apparent volume of distribution at steady state (Vss) were calculated from the following equations: CL=Dose/AUC∞ Vss=MRT×CL
(§3) Table 6 summarizes the maximum plasma concentration (Cmax) and the area under the plasma concentration versus time curve (AUC) observed at the NOAEL doses cited above, as well as the animal to human exposure ratios (ER) for dexanabinol of high enantiomeric purity, expressed as the ratio of the pharmacokinetic (PK) parameter to that observed for a 150 mg dose in a Phase I study in human volunteers and in Phase II study in patients suffering from severe traumatic brain injury (TBI).

[2] = oral bioavailability, hard gelatin capsules, minipig model; assay type: in vivo; settings: plasma, 40 mg/kg
Procedure: The percentage of oral bioavailability was calculated using the following equation: % F=[AUCoral/Doseoral]/[AUCIV/DoseIV] Non-human Pharmacokinetic Studies.
Dexanabinol of high enantiomeric purity (lot # AC9001HU) filled in hard gelatin capsules have shown good oral bioavailability. A pharmacokinetic study for oral bioavailability of dexanabinol in large animals using the minipig model (the best animal model for oral absorption of drugs) was carried out. The animals (n=3) after 8 hours of food deprivation were administered orally with hard gelatin capsules containing dexanabinol of high enantiomeric purity at a dose of 40 mg/kg. Dexanabinol plasma levels were determined using a validated GC-MS assay up to 48 hours following administration. […] Pharmacokinetic analysis was done using the non-compartmental model analysis (WinNonlin software). Linear trapezoidal rule was used to compute AUC and AUMC.

[3] = single dose toxicity and pharmacokinetics, rat; assay type: in vivo, Sprague Dawley rats; settings: for AUC(0-inf) / Cmax: Sprague Dawley, plasma, single i.v. 50 mg/kg (NOAEL); for AUC∞ Ratio to Phase I / Cmax Ratio to Phase I / Cmax Ratio to Phase II: single i.v. 50 mg/kg; for AUC∞ Ratio to Phase I / Cmax Ratio to Phase I: vs human 150 mg Phase I; for Cmax Ratio to Phase II: vs human 150 mg Phase II
Procedure: as §1, §2, §3

[4] = 14-day multiple dose pharmacokinetic/toxicity study, rabbit; assay type: in vivo, rabbits; settings: for AUC(0-inf) / Cmax: plasma, 25 mg/kg i.v. daily, final dose Day 14 (NOAEL); for AUC∞ Ratio to Phase I / Cmax Ratio to Phase I / AUC∞ Ratio to Phase II / Cmax Ratio to Phase II: 25 mg/kg Day 14; for AUC∞ Ratio to Phase I / Cmax Ratio to Phase I: vs human 150 mg Phase I; for AUC∞ Ratio to Phase II / Cmax Ratio to Phase II: vs human 150 mg Phase II
Procedure: as §1, §2
In 14-day multiple dose pharmacokinetic studies, the NOAEL was 15 mg/kg/day in rats and 25 mg/kg/day in rabbits. In a 28-day study in monkeys the NOAEL was 25 mg/kg/day. Cmax and AUC observed following the last dose at the NOAEL in the multiple dose toxicity studies and the ratios of these values to those observed in the Phase I and II studies for the 150 mg dose are shown in Table 7.

[5] = New Zealand White, iv, rabbit female
[6] = New Zealand White, iv, rabbit male
[7] = both sexes, New Zealand White, iv, rabbit male & female
[8] = both sexes, iv, rabbit male & female

SMILES: CCCCCCC(C)(C)c1cc(O)c2c(c1)OC(C)(C)[C@H]1CC=C(CO)C[C@H]21 [dexanabinol, 1,1-dimethylheptyl-(3S,4S)-7-hydroxy-Δ^6-tetrahydrocannabinol]
- AUC(0-inf) [1, 5]: 16200 ng·h/mL
- Cmax [1, 5]: 34500 ng/mL
- AUC(0-inf) [1, 6]: 20100 ng·h/mL
- Cmax [1, 6]: 33800 ng/mL
- NOAEL ([1]; New Zealand White, rabbit, in vivo, iv, single dose i.v., read-out: no observed adverse effect level (NOAEL)): 25 mg/kg
- AUC(0-inf) [1, 7]: 18200 ng·h/mL
- Cmax [1, 7]: 33400 ng/mL
- AUC∞ Ratio to Phase I ([1]; rabbit female): 5.1
- Cmax Ratio to Phase I ([1]; rabbit female): 6.9
- Cmax Ratio to Phase II ([1]; rabbit female): 17.6
- AUC∞ Ratio to Phase I ([1]; rabbit male & female): 5.7
- Cmax Ratio to Phase I ([1]; rabbit male & female): 6.7
- Cmax Ratio to Phase II ([1]; rabbit male & female): 17.0
- AUC∞ Ratio to Phase I ([1]; rabbit male): 6.3
- Cmax Ratio to Phase I ([1]; rabbit male): 6.8
- Cmax Ratio to Phase II ([1]; rabbit male): 17.2
- AUC ([2]; n=3): 4210 ng·h/mL
- Cmax ([2]; n=3): 271 ± 102 ng/mL
- MRT ([2]; n=3): 12.1 ± 1.15 h
- half-life ([2]; n=3): 7.47 ± 1.06 h
- bioavailability ([2]; oral, n=3, read-out: % F (oral bioavailability compared to i.v. injection)): ~12%
- AUC(0-inf) ([3]; iv, rat female): 173000 ng·h/mL
- Cmax ([3]; iv, rat female): 38800 ng/mL
- AUC(0-inf) ([3]; iv, rat male): 67500 ng·h/mL
- Cmax ([3]; iv, rat male): 102000 ng/mL
- NOAEL ([3]; Sprague-Dawley, rat, in vivo, iv, single dose i.v., read-out: no observed adverse effect level (NOAEL)): 50 mg/kg
- AUC∞ Ratio to Phase I ([3]; rat female): 54.0
- Cmax Ratio to Phase I ([3]; rat female): 7.7
- Cmax Ratio to Phase II ([3]; rat female): 19.7
- AUC∞ Ratio to Phase I ([3]; rat male): 21.0
- Cmax Ratio to Phase I ([3]; rat male): 20.4
- Cmax Ratio to Phase II ([3]; rat male): 51.9
- AUC(0-inf) [4, 8]: 67700 ng·h/mL
- Cmax [4, 8]: 132000 ng/mL
- AUC(0-inf) ([4]; iv, rabbit female): 67900 ng·h/mL
- Cmax ([4]; iv, rabbit female): 115000 ng/mL
- AUC(0-inf) ([4]; iv, rabbit male): 67700 ng·h/mL
- Cmax ([4]; iv, rabbit male): 150000 ng/mL
- AUC∞ Ratio to Phase I ([4]; rabbit female): 21.2
- Cmax Ratio to Phase I ([4]; rabbit female): 23.0
- AUC∞ Ratio to Phase II ([4]; rabbit female): 45.8
- Cmax Ratio to Phase II ([4]; rabbit female): 58.6
- AUC∞ Ratio to Phase I ([4]; rabbit male & female): 21.1
- Cmax Ratio to Phase I ([4]; rabbit male & female): 26.4
- AUC∞ Ratio to Phase II ([4]; rabbit male & female): 45.6
- Cmax Ratio to Phase II ([4]; rabbit male & female): 67.2
- AUC∞ Ratio to Phase I ([4]; rabbit male): 21.1
- Cmax Ratio to Phase I ([4]; rabbit male): 29.9
- AUC∞ Ratio to Phase II ([4]; rabbit male): 45.6
- Cmax Ratio to Phase II ([4]; rabbit male): 76.0
- NOAEL at 14 days ([4]; rabbit, in vivo, iv, 14-day multiple dose i.v.): 25 mg/kg/day
